This passage reports Dmax and IC50 results from patent US20260234124A1, “Substituted Pyrazolyl-Pyridinyl Compounds as Ligand Directed Degraders of IRAK3” (Celgene Corporation, priority 2022, published 2026).

The target in test [1] is T1, IRAK3 (Homo sapiens, UniProt Q9Y616).
T1 sequence (Q9Y616 1-596): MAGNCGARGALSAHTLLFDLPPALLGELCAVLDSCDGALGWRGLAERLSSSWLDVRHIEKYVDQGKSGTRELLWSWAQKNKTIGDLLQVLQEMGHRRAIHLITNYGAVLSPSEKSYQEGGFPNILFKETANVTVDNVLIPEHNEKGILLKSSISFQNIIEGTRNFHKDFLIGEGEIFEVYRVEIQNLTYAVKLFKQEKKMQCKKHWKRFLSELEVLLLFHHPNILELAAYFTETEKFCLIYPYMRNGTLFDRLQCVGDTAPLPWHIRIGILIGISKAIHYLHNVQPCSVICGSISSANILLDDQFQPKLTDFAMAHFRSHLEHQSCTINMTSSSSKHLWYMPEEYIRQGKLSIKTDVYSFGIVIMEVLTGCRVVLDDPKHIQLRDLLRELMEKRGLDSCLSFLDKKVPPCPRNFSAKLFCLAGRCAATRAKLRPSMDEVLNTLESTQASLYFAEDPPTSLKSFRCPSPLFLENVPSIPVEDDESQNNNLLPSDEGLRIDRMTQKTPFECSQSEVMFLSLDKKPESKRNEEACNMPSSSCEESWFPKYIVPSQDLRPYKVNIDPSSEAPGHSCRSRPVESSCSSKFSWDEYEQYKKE
Description: IRAK endogenous HTRF degradation assay (Total-IRAK3 HTRF kit). The test is classed as cell-based. The arrangement: IRAK Endogenous HTRF Degradation Assay; endogenous in cells. The conditions noted are these: endogenous IRAK3, overnight incubation; % Dmax = 100 − Ymin. The method, then:
Example B2. IRAK Endogenous HTRF Degradation Assay
Cells (~50k) were plated in Cisbio 96-well low volume white plates (Cisbio: cat #66PL96005). Compounds were dissolved in DMSO and a 3-fold serial dilution was performed using a TECAN D300E. Cells were incubated with the compound overnight. Total-IRAK3 HTRF kit from Cisbio was used for degradation analysis (Cisbio: 63ADK101PEH). Cryptate and D2 antibodies were diluted in Detection buffer as per manufacturers recommendation. Then 2 μL of each solution was added to 16 μL lysate. Buffer control (lysis buffer detection buffer), Cryptate control (lysis buffer+cryptate antibody+detection buffer), and Negative control (lysis buffer+cryptate antibody+D2 antibody) were made as per manufacturers recommendation. Post incubation with antibodies the HTRF signal was measured using a Perkin Elmer Envision reader and the HTRF signal was calculated using formula: (Emission at 665 nm/Emission at 615 nm)*10,000. All HTRF values were normalized to the average value of DMSO. The average value of the DMSO control wells were set to equal 100% of the relative IRAK3 protein levels. Normalized luminescence values were plotted on a graph as a function of compound concentration. Compound concentration was plotted on the x-axis and the corresponding normalized IRAK3 protein levels on the y-axis. The EC50 value (the half-maximum effective concentration) of a compound for the degradation of the IRAK3 was calculated using a four-parameter logistic model (sigmoidal dose-response model) (FIT=(A+{(B−A)/1+[(C/x)D]})) where C is the inflection point (EC50), D is the […], and A and B are the low and high limits of the fit, respectively). The Ymin was calculated by determining the lowest percentage of target protein remaining following compound treatment. Dmax was calculated from Ymin (% Dmax=100−Ymin).
(§1) Using these assays, IC50, Dmax, EC50, and DC50 values of the following compounds were determined. Dmax is defined as the maximum percent degradation achieved and DC50 is the concentration at which 50% degradation is achieved.

Test [2] addresses T1, IRAK3. Description: IRAK3 biochemical binding assay (LanthaScreen Eu Kinase Binding, TR-FRET). Conditions: 10 nM tracer, 10 nM IRAK3, 1 hour at room temperature. Here is the method:
Example B3. IRAK3 Biochemical Binding Assay
The LanthaScreen® Eu Kinase Binding assay was performed as described by the vendor (ThermoFisher Scientific Waltham, MA). Briefly, 100× solutions of compound were prepared in DMSO via serial dilution of the 10 mM stock solution in a 384-well reagent plate using 3-fold intervals to achieve final concentrations. 1 μL of the compound dilution series were added to the corresponding wells of a 384-well reagent plate containing 32.3 μL of 1× buffer (50 mM HEPES pH 7.4, […], 1 mM EGTA, 0.01% Brij-35). 5 μL of the buffer diluted compounds were transferred to the corresponding wells of a 384-well assay plate. 5 μL of 3× tracer was transferred to each well of the assay plate for a final tracer concentration of 10 nM. Finally, 5 μL of the 3× Eu-Anti-GST and IRAK3 mix was transferred to each well for a final concentration of 2 nM and 10 nM, respectively. Reactions were allowed to incubate for 1 hour at room temperature. TR-FRET signal of the interaction ([…]/λem 665/λem 615) was read at room temperature with a delay time of 100 μs and an integration time of 200 μs using an Envision plate reader. Background corrected emission signal ratios at each compound concentration were used to calculate percentage of inhibition (% o Inhibition). Plots of % Inhibition versus inhibitor concentrations were fit according to a dose-response equation (Eq. 1) to generate IC50 and Hill slope values using Dotmatics software (Dotmatics, Bishops Storford, Hertfordshire, England).
as §1

Compound `C[C@@H](Oc1cc(-c2cnn(C3CCN(CCOCCOCCOCCOCCNC(=O)COc4ccc5c(c4)C(=O)N(C4CCC(=O)NC4=O)C5=O)CC3)c2)cnc1N)c1c(Cl)ccc(F)c1Cl` (stereo partly drawn) [Compound 17, N-(14-(4-(4-(6-amino-5-((R)-1-(2,6-dichloro-3-fluorophenyl)ethoxy)pyridin-3-yl)-1H-pyrazol-1-yl)piperidin-1-yl)-3,6,9,12-tetraoxatetradecyl)-2-((2-(2,6-dioxopiperidin-3-yl)-1,3-dioxoisoindolin-5-yl)oxy)acetamide] yielded a Dmax in test [1] of 32%. This compound registered an IC50 in test [2] of 100 nM.

In test [1], `Cc1ncsc1-c1ccc(CNC(=O)[C@@H]2C[C@@H](O)CN2C(=O)[C@@H](NC(=O)COCCOCCOCCN2CCC(n3cc(-c4cnc(N)c(O[C@H](C)c5c(Cl)ccc(F)c5Cl)c4)cn3)CC2)C(C)(C)C)cc1` [Compound 3, (2S,4R)-1-((S)-14-(4-(4-(6-amino-5-((R)-1-(2,6-dichloro-3-fluorophenyl)ethoxy)pyridin-3-yl)-1H-pyrazol-1-yl)piperidin-1-yl)-2-(tert-butyl)-4-oxo-6,9,12-trioxa-3-azatetradecanoyl)-4-hydroxy-N-(4-(4-methylthiazol-5-yl)benzyl)pyrrolidine-2-carboxamide] returned a Dmax of 42%. Further, the IC50 in test [2] turned out to be 186 nM.

`Cc1ncsc1-c1ccc(CNC(=O)[C@@H]2C[C@@H](O)CN2C(=O)[C@@H](NC(=O)CCCN2CCC(n3cc(-c4cnc(N)c(O[C@H](C)c5c(Cl)ccc(F)c5Cl)c4)cn3)CC2)C(C)(C)C)cc1` [Compound 1, (2S,4R)-1-((S)-2-(4-(4-(4-(6-amino-5-((R)-1-(2,6-dichloro-3-fluorophenyl)ethoxy)pyridin-3-yl)-1H-pyrazol-1-yl)piperidin-1-yl)butanamido)-3,3-dimethylbutanoyl)-4-hydroxy-N-(4-(4-methylthiazol-5-yl)benzyl)pyrrolidine-2-carboxamide] yielded a Dmax in test [1] of 41%. This compound also had an IC50 in test [2] of 111 nM.

As for `C[C@@H](Oc1cc(-c2cnn(C3CCN(CCOCCNC(=O)COc4ccc5c(c4)C(=O)N(C4CCC(=O)NC4=O)C5=O)CC3)c2)cnc1N)c1c(Cl)ccc(F)c1Cl` (stereo partly drawn) [Compound 14, N-(2-(2-(4-(4-(6-amino-5-((R)-1-(2,6-dichloro-3-fluorophenyl)ethoxy)pyridin-3-yl)-1H-pyrazol-1-yl)piperidin-1-yl)ethoxy)ethyl)-2-((2-(2,6-dioxopiperidin-3-yl)-1,3-dioxoisoindolin-5-yl)oxy)acetamide], the Dmax in test [1] came out at 3%. This compound yielded an IC50 in test [2] of 70 nM.

In test [1], `C[C@@H](Oc1cc(-c2cnn(C3CCN(CCOCCOCCOCCNC(=O)COc4cccc5c4C(=O)N(C4CCC(=O)NC4=O)C5=O)CC3)c2)cnc1N)c1c(Cl)ccc(F)c1Cl` (stereo partly drawn) [Compound 11, N-(2-(2-(2-(2-(4-(4-(6-amino-5-((R)-1-(2,6-dichloro-3-fluorophenyl)ethoxy)pyridin-3-yl)-1H-pyrazol-1-yl)piperidin-1-yl)ethoxy)ethoxy)ethoxy)ethyl)-2-((2-(2,6-dioxopiperidin-3-yl)-1,3-dioxoisoindolin-4-yl)oxy)acetamide] yielded a Dmax of 38%. In test [2], this compound registered an IC50 of 95 nM.

In test [1], `C[C@@H](Oc1cc(-c2cnn(C3CCN(CCNC(=O)COc4cccc5c4C(=O)N(C4CCC(=O)NC4=O)C5=O)CC3)c2)cnc1N)c1c(Cl)ccc(F)c1Cl` (stereo partly drawn) [Compound 8, N-(2-(4-(4-(6-amino-5-((R)-1-(2,6-dichloro-3-fluorophenyl)ethoxy)pyridin-3-yl)-1H-pyrazol-1-yl)piperidin-1-yl)ethyl)-2-((2-(2,6-dioxopiperidin-3-yl)-1,3-dioxoisoindolin-4-yl)oxy)acetamide] had a Dmax of 37%. The compound further returned an IC50 in test [2] of 25 nM.

In test [1], `C[C@@H](Oc1cc(-c2cnn(C3CCN(CCOCCOCCOCCOCCNC(=O)COc4cccc5c4C(=O)N(C4CCC(=O)NC4=O)C5=O)CC3)c2)cnc1N)c1c(Cl)ccc(F)c1Cl` (stereo partly drawn) [Compound 12, N-(14-(4-(4-(6-amino-5-((R)-1-(2,6-dichloro-3-fluorophenyl)ethoxy)pyridin-3-yl)-1H-pyrazol-1-yl)piperidin-1-yl)-3,6,9,12-tetraoxatetradecyl)-2-((2-(2,6-dioxopiperidin-3-yl)-1,3-dioxoisoindolin-4-yl)oxy)acetamide] came in with a Dmax of 33%. Further, the IC50 in test [2] was determined as 56 nM.

`C[C@@H](Oc1cc(-c2cnn(C3CCN(CCOCCOCCNC(=O)COc4ccc5c(c4)C(=O)N(C4CCC(=O)NC4=O)C5=O)CC3)c2)cnc1N)c1c(Cl)ccc(F)c1Cl` (stereo partly drawn) [Compound 15, N-(2-(2-(2-(4-(4-(6-amino-5-((R)-1-(2,6-dichloro-3-fluorophenyl)ethoxy)pyridin-3-yl)-1H-pyrazol-1-yl)piperidin-1-yl)ethoxy)ethoxy)ethyl)-2-((2-(2,6-dioxopiperidin-3-yl)-1,3-dioxoisoindolin-5-yl)oxy)acetamide] had a Dmax in test [1] of 20%. In addition, in test [2], the IC50 came out at 64 nM.

For `C[C@@H](Oc1cc(-c2cnn(C3CCN(C4CCC5(CC4)CCN(C(=O)c4cccc(NC6CCC(=O)NC6=O)c4)CC5)CC3)c2)cnc1N)c1c(Cl)ccc(F)c1Cl` (stereo partly drawn) [Compound 22, 3-((3-(9-(4-(4-(6-Amino-5-((R)-1-(2,6-dichloro-3-fluorophenyl)ethoxy)pyridin-3-yl)-1H-pyrazol-1-yl)piperidin-1-yl)-3-azaspiro[5.5]undecane-3-carbonyl)phenyl)amino)piperidine-2,6-dione], the Dmax in test [1] stood at 81%. In test [2], the concentration for half-maximal inhibition (IC50) was found to be 5 nM.

The compound `C[C@@H](Oc1cc(-c2cnn(C3CCN(C4CCC5(CC4)CCN(C(=O)c4cccc6c4CN(C4CCC(=O)NC4=O)C6=O)CC5)CC3)c2)cnc1N)c1c(Cl)ccc(F)c1Cl` (stereo partly drawn) [Compound 21, 3-(4-(9-(4-(4-(6-amino-5-((R)-1-(2,6-dichloro-3-fluorophenyl)ethoxy)pyridin-3-yl)-1H-pyrazol-1-yl)piperidin-1-yl)-3-azaspiro[5.5]undecane-3-carbonyl)-1-oxoisoindolin-2-yl)piperidine-2,6-dione] yielded a Dmax in test [1] of 68%. In addition, in test [2], the IC50 was 2 nM.
